Experimental data taken from publication PMC6858373 (Scientific Reports, 2019).
Where two headings read alike, the source gives them in different places.

Key:
[1] = target: full-length P. pyralis luciferase (Photinus pyralis, UniProt P08659, K549A/L550V/N119G/N50D/S548I); format: cell-based
[2] = target: T1, FGF14:Nav1.6 C-tail complex (Homo sapiens, UniProt Q92915+Q9UQD0); assay: Split-luciferase complementation assay (LCA) in Clone V double stable HEK293 cells; format: cell-based
T1 construct: polymerase chain reaction (PCR) amplification of the FGF14 open reading frame (nt 1–855); C-terminal fragment of Nav1.6 (amino acids 1763–1976) fused with CD4ΔC-tail (amino acids 1–395); expressed in transfected cells

[3] = CC_NCI screening, full-length luciferase counter-screen luminescence, normalized to on-plate 0.3% DMSO controls
[4] = CC_NCI screening, full-length luciferase counter-screen, normalized to on-plate 0.3% DMSO controls
[5] = CC_NCI screening, LCA luminescence, biological replicate Set 1, normalized to on-plate 0.3% DMSO controls (n=16 per plate)
[6] = CC_NCI screening, LCA luminescence, biological replicate Set 2, normalized to on-plate 0.3% DMSO controls (n=16 per plate)
[7] = CC_NCI screening, LCA, biological replicate Set 1, normalized to on-plate 0.3% DMSO controls
[8] = CC_NCI screening, LCA, biological replicate Set 2, normalized to on-plate 0.3% DMSO controls
[9] = CC_NCI screening, average of Set 1 and Set 2, normalized to 0.3% DMSO controls
[10] = CC_NCI screening, normalized to on-plate 0.3% DMSO controls
[11] = CC_NCI screening, biological replicate Set 1, normalized to on-plate 0.3% DMSO controls
[12] = CC_NCI screening, biological replicate Set 1, normalized to on-plate 0.3% DMSO controls (n=16 per plate)
[13] = CC_NCI screening, biological replicate Set 2, normalized to on-plate 0.3% DMSO controls
[14] = CC_NCI screening, biological replicate Set 2, normalized to on-plate 0.3% DMSO controls (n=16 per plate)
[15] = average of Set 1 and Set 2, normalized to 0.3% DMSO controls

Sequence of full-length P. pyralis luciferase (P08659 whole entry N50D/N119G/S548I/K549A/L550V, looked up): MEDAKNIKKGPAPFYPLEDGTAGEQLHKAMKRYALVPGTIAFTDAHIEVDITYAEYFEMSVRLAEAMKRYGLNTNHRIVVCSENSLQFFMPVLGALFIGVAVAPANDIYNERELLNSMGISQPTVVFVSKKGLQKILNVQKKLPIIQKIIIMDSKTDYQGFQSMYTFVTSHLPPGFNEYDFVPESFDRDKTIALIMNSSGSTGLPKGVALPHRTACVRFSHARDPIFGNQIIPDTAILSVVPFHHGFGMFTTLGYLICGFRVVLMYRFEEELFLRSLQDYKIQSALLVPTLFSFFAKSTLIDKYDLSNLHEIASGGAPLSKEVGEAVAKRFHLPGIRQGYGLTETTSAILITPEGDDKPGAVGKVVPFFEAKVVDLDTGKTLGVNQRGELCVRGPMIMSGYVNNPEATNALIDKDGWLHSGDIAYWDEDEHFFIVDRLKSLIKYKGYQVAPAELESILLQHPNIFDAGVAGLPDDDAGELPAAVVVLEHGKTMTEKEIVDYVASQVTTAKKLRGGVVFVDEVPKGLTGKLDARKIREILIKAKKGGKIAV
T1 sequence (Q92915 1-252 isoform Q92915-2): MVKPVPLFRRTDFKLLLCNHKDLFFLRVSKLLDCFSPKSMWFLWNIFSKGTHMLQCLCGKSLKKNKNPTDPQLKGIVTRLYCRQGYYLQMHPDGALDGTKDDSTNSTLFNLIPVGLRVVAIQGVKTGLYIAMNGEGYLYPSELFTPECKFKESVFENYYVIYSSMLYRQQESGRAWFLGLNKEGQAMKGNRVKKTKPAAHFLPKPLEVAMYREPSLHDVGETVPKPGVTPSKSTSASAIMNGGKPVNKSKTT
T1 sequence (Q9UQD0 1763-1976 limits assumed): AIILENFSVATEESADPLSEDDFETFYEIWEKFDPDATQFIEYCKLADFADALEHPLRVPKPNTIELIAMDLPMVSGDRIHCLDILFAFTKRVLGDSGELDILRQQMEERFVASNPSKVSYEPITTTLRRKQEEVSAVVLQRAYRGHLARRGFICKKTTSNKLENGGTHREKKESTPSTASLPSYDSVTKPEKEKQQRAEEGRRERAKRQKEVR

SMILES | Toxicity Assay % Fluor (Clone V cells; human, 16 h, 30 µM) | Toxicity Assay Z-score (Clone V cells; human, 16 h, 30 µM) | Luciferase Assay % Lum [1, 3] | Luciferase Assay Z-score [1, 4] | Split Luciferase Assay % Lum Set 1 [2, 5] | Split Luciferase Assay %Lum Set 2 [2, 6] | Split Luciferase Assay Z-score Set 1 [2, 7] | Split Luciferase Assay Z-score Set 2 [2, 8] | Split Luciferase Assay %Lum Avg [2, 9] | Luciferase Assay % Lum (full-length luciferase counter-screen) [1, 10] | Luciferase Assay Z-score (full-length luciferase counter-screen) [1, 10] | Split Luciferase Assay Z-score Set 1 [2, 11] | Split Luciferase Assay % Lum Set 1 [2, 12] | Split Luciferase Assay Z-score Set 2 [2, 13] | Split Luciferase Assay %Lum Set 2 [2, 14] | Split Luciferase Assay %Lum Avg [2, 15] | Toxicity Assay Z-score (CTB cell viability) (Clone V cells) | also measured
C[S+]([O-])c1ccc(-c2nc(-c3ccncc3)c(-c3ccc(F)cc3)[nH]2)cc1 (stereo not drawn) [SB 203580, reference compound] | 95.56% | -0.62 |  |  |  |  |  |  |  |  |  |  |  |  |  |  |  | Luciferase Assay % Lum [1]: 80.35%; Luciferase Assay Z-score [1]: -2.52; EMax (% Luminescence) [2]: 152.42 % Luminescence; Split Luciferase Assay %Lum Avg [2]: 152.42%; Split Luciferase Assay %Lum Set 2 [2]: 166.45%; Split Luciferase Assay Z-score Set 1 [2]: 3.10; Split Luciferase Assay Z-score Set 2 [2]: 5.41; Z-score (LCA primary screening) [2]: 4.25; dose-dependent behavior in LCA [2]: mild inhibition at lower concentrations (0.5–2 µM) and stimulation at higher concentrations
OCCn1cc(-c2cnc3nnn(Cc4ccc5ncccc5c4)c3n2)cn1 [PF-04217903] |  |  | 111.09% | 1.42 | 90.56% | 78.02% | -0.76 | -1.79 | 84.29% |  |  |  |  |  |  |  |  | Toxicity Assay % Fluor (Clone V cells): 99.86%; Toxicity Assay Z-score (Clone V cells): -0.02
O=C(O)C(=O)O.[NH-][C@@H]1CCCC[C@H]1[NH-].[Pt+2] [Oxaliplatin] |  |  | 102.65% | 0.34 | 115.56% | 119.64% | 1.26 | 1.60 | 117.60% |  |  |  |  |  |  |  |  | Toxicity Assay % Fluor (Clone V cells): 90.53%; Toxicity Assay Z-score (Clone V cells): -1.32
CNC(=O)c1ccc(N2C(=S)N(c3ccc(C#N)c(C(F)(F)F)c3)C(=O)C2(C)C)cc1F [Enzalutamide] | 90.81% | -1.28 |  |  | 94.90% | 98.83% | -0.41 | -0.10 | 96.87% |  |  |  |  |  |  |  |  | Luciferase Assay % Lum [1]: 80.08%; Luciferase Assay Z-score [1]: -2.55
Nc1ccccc1NC(=O)c1ccc(CNC(=O)OCc2cccnc2)cc1 [MS-275] |  |  |  |  |  |  |  |  |  | 107.21% | 0.92 | -2.96 | 63.38% | -2.38 | 70.74% | 67.06% | 0.16 | Toxicity Assay % Fluor (CTB cell viability fluorescence) (Clone V cells): 101.17%
NS(=O)(=O)c1nn2cc(-c3ccccc3)nc2s1 [AEG 3482] |  |  |  |  |  |  |  |  |  | 93.96% | -0.77 | 1.78 | 122.08% | 1.09 | 113.39% | 117.74% | 0.74 | Toxicity Assay % Fluor (CTB cell viability fluorescence) (Clone V cells): 105.28%
O=c1[nH]c(=O)n([C@H]2C[C@H](O)[C@@H](CO)O2)cc1F [Floxuridine, reference compound] | 90.13% | -1.38 | 100.29% | 0.04 | 154.69% |  | 4.42 | 3.04 | 146.01% |  |  |  |  |  |  |  |  | Z-score (LCA primary screening) ([2]; 30 µM, 384-well, average of primary screening (n = 2), vs on-plate 0.3% DMSO): 3.73; EMax (% Luminescence) ([2]; agonists, Clone V cells, 384-well, normalized to DMSO): 146.01 % Luminescence; EC50 ([2]; estimated, 8-point dose response 0.25-30 µM, n = 4 per concentration, library compounds, read-out: EC50): 2460 nM
COc1cc2ncn(-c3cc(OCc4ccccc4C(F)(F)F)c(C(N)=O)s3)c2cc1OC [GW 843682X] | 106.44% | 0.90 | 102.89% | 0.37 | 163.39% | 170.61% | 5.12 | 5.75 | 167.00% |  |  |  |  |  |  |  |  | 
NC(=O)NO [Hydroxyurea] |  |  |  |  |  |  |  |  |  | 102.60% | 0.33 | -0.85 | 89.47% | 1.01 | 112.35% | 100.91% | 2.16 | Toxicity Assay % Fluor (CTB cell viability fluorescence) (Clone V cells): 115.47%
CN(NC(=O)CC(=O)NN(C)C(=S)c1ccccc1)C(=S)c1ccccc1 [ELESCLOMOL] | 74.49% | -3.57 | 99.01% | -0.13 | 30.77% | 35.37% | -5.60 | -5.26 | 33.07% |  |  |  |  |  |  |  |  | 
O=C1NC(=O)/C(=C/c2ccc3c(c2)OC(F)(F)O3)S1 [AS-604850] |  |  |  |  |  |  |  |  |  | 62.77% | -4.77 | -2.78 | 65.55% | -1.96 | 75.94% | 70.75% | 2.25 | 
COc1cc2nccc(Oc3ccc(NC(=O)C4(C(=O)Nc5ccc(F)cc5)CC4)cc3)c2cc1OC [Cabozantinib] | 93.87% | -0.86 | 67.75% | -4.13 | 27.50% | 27.05% | -5.86 | -5.94 | 27.28% |  |  |  |  |  |  |  |  | 
NC(=O)c1ncn([C@@H]2O[C@H](CO)[C@@H](O)[C@H]2O)c1N [AICAR] |  |  |  |  |  |  |  |  |  | 107.04% | 0.90 | 0.03 | 100.34% | 0.84 | 110.27% | 105.31% | 1.16 | Toxicity Assay % Fluor (CTB cell viability fluorescence) (Clone V cells): 108.29%
Nc1nc2nc[nH]c2c(=S)[nH]1 [Thioguanine] | 96.19% | -0.53 | 92.95% | -0.90 | 93.82% | 110.27% | -0.50 | 0.84 | 102.05% |  |  |  |  |  |  |  |  | 
C=C(c1ccc(C(=O)O)cc1)c1cc2c(cc1C)C(C)(C)CCC2(C)C [BEXAROTENE] | 86.80% | -1.85 | 99.04% | -0.12 | 129.69% | 99.87% | 2.40 | -0.01 | 114.78% |  |  |  |  |  |  |  |  | 
